Measurements: patent US11208412B2 (DAEGU-GYEONGBUK MEDICAL INNOVATION FOUNDATION, priority 2017, dated 2021)

What was measured:
Assay in all cases: Kinase selectivity, DiscoverX scanMAX Kinase assay panel (% control)
Assay type in all cases: binding
[1] = target: T1, kinases of the scanMAX Kinase assay panel (Homo sapiens, UniProt P53671); details: LIMK2; 1 uM
T1 construct: purchased DiscoverX Co. (contract measurement) scanMAX Kinase assay panel
Procedure, shortened: (§1)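 Read-out is % control, normalised so a positive-control compound sits at 0% and DMSO at 100%: (test − positive)/(negative − positive)×100. Each kinase received the compound at 1 uM in DMSO. A value below 35% counts as activity.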

[2] = target: T2, kinases of the scanMAX Kinase assay panel (Homo sapiens, UniProt Q9NRM7); details: LATS2; 1 uM
T2 construct: purchased DiscoverX Co. (contract measurement) scanMAX Kinase assay panel
T2 sequence (Q9NRM7 1-1088): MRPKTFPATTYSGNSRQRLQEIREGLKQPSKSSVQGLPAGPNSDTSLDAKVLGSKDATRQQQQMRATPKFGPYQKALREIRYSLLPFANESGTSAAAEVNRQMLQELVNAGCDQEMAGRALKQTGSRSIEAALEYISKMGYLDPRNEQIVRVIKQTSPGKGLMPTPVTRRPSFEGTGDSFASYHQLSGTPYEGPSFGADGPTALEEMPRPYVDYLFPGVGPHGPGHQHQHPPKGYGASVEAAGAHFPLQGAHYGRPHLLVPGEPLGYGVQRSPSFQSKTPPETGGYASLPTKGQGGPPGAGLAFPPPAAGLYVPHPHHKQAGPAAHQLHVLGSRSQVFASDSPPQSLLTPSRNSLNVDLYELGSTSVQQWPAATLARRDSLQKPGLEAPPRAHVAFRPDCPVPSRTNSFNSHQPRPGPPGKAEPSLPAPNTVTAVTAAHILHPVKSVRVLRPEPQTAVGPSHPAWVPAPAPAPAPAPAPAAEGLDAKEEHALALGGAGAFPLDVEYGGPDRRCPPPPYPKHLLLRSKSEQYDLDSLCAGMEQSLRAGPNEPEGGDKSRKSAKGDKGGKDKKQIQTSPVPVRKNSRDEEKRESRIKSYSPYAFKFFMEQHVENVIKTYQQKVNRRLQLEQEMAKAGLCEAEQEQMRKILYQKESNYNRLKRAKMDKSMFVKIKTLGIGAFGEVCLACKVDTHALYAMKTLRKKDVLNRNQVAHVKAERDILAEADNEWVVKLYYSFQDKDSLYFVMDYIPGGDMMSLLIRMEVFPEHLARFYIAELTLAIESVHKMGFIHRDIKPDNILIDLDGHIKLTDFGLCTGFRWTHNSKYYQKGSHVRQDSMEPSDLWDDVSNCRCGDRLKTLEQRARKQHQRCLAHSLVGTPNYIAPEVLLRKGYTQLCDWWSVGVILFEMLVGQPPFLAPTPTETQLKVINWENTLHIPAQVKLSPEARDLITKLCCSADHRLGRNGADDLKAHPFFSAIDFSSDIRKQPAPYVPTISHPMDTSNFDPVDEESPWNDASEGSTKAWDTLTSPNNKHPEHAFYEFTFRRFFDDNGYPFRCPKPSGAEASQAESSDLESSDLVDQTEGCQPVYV
Procedure, shortened: as §1

[3] = target: T3, kinases of the scanMAX Kinase assay panel (Homo sapiens, UniProt Q00537); details: PCTK2; 1 uM
T3 construct: purchased DiscoverX Co. (contract measurement) scanMAX Kinase assay panel
T3 sequence (Q00537 whole entry): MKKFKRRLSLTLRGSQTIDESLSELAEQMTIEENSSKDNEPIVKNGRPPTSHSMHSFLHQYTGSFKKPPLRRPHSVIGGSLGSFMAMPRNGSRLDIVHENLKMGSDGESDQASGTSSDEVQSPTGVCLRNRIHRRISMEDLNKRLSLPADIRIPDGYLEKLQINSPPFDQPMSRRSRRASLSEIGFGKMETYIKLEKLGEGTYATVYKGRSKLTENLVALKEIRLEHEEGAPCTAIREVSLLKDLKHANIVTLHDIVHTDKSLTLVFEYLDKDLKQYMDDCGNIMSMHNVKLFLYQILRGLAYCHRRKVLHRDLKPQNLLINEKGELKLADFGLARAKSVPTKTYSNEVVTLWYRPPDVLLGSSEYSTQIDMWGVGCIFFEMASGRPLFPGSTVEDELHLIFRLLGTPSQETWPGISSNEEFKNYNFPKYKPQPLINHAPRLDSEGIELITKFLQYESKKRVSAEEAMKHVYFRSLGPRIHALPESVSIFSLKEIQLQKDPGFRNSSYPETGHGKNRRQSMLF
Procedure, shortened: as §1

[4] = target: T4, kinases of the scanMAX Kinase assay panel (Homo sapiens, UniProt Q8N752); details: CSNK1A1L; 1 uM
T4 construct: purchased DiscoverX Co. (contract measurement) scanMAX Kinase assay panel
T4 sequence (Q8N752 1-337): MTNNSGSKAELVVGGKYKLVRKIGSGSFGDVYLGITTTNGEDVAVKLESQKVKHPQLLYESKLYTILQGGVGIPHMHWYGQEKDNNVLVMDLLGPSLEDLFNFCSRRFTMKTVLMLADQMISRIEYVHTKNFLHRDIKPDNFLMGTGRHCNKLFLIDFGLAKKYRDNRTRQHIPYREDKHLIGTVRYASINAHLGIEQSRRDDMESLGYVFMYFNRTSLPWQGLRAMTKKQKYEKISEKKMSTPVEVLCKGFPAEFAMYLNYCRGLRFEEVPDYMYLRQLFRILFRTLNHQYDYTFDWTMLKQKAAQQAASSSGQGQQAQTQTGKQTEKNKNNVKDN
Procedure, shortened: as §1

[5] = target: T5, kinases of the scanMAX Kinase assay panel (Homo sapiens, UniProt Q96RR4); details: CAMKK2; 1 uM
T5 construct: purchased DiscoverX Co. (contract measurement) scanMAX Kinase assay panel
T5 sequence (Q96RR4 whole entry): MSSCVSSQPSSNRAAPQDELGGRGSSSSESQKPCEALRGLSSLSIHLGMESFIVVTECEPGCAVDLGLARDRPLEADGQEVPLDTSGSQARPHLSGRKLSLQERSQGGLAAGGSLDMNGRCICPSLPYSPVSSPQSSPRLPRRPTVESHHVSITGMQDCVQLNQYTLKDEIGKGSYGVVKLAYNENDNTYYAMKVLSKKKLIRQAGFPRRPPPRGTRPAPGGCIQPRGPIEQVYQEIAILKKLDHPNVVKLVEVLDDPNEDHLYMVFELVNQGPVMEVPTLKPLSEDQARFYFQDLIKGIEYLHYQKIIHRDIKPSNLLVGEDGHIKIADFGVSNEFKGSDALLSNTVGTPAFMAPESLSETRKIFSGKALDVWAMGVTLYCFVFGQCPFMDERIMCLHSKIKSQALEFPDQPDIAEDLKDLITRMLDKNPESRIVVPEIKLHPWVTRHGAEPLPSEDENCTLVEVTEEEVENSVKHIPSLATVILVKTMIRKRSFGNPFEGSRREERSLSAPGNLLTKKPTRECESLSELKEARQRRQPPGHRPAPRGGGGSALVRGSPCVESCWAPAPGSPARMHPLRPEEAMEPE
Procedure, shortened: as §1

[6] = target: T6, kinases of the scanMAX Kinase assay panel (Homo sapiens, UniProt Q59H18); details: kinase TNNI3K; 1 uM in DMSO
T6 construct: purchased DiscoverX Co. (contract measurement) scanMAX Kinase assay panel
T6 sequence (Q59H18 1-835): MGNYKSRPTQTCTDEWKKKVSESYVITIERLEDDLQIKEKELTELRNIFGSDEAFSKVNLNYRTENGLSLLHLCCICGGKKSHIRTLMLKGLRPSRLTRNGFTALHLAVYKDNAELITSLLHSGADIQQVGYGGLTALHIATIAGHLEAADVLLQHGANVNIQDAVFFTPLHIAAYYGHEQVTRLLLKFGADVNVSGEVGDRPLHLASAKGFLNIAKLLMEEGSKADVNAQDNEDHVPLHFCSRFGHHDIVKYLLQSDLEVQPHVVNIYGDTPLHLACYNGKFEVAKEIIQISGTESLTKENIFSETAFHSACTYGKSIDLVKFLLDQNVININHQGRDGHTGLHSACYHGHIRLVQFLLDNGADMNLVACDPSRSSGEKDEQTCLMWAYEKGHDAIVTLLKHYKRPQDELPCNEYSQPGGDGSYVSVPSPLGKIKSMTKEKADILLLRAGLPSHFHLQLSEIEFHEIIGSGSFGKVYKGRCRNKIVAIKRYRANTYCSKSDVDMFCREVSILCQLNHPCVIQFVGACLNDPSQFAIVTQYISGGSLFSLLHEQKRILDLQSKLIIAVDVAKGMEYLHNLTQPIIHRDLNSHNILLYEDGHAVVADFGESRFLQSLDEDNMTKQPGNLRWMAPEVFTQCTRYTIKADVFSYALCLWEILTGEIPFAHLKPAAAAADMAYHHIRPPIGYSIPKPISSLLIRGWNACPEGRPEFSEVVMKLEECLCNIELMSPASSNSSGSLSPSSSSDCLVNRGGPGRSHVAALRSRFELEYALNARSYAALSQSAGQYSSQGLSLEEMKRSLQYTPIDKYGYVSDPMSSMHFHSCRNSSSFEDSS
Procedure, shortened: as §1

T1 sequence (P53671 whole entry): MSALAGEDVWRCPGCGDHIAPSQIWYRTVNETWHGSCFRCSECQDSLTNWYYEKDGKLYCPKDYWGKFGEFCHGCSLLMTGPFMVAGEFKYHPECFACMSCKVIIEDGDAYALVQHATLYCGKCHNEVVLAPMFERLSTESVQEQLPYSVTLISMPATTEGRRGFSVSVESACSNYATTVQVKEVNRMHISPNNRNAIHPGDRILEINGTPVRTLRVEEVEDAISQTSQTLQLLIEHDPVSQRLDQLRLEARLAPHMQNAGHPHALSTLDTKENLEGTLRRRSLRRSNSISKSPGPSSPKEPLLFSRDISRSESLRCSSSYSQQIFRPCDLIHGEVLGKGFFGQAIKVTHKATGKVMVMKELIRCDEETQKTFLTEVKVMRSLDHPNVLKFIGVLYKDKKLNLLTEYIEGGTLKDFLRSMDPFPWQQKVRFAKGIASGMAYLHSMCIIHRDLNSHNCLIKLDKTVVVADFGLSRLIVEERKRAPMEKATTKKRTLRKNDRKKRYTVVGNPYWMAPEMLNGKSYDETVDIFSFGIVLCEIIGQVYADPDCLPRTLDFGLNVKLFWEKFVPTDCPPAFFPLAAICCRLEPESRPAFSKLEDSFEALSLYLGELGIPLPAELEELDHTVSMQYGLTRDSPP

Row | Compound | remaining binding at 1 µM [1] [%] | remaining binding at 1 µM [2] [%] | remaining binding at 1 µM [3] [%] | remaining binding at 1 µM [4] [%] | remaining binding at 1 µM [5] [%] | remaining binding at 1 µM [6] [%]
1 | CNc1nc(Nc2ccc(C(=O)N3CCOCC3)cc2OC)nc2[nH]cc(C#N)c12 [Example 1, 2-((2-methoxy-4-(morpholine-4-carbonyl)phenyl)amino)-4-(methylamino)-7H-pyrrolo[2,3-d]pyrimidine-5-carbonitrile] | 94 | 61 | 98 | 34 | 65 | 99
2 | CC1(Nc2nc(Nc3cnn([C@H]4CCN(C5COC5)C[C@@H]4F)c3Cl)nc3[nH]cc(C#N)c23)CC1 [Example 52, 2-((5-chloro-1-((3S,4S)-3-fluoro-1-(oxetane-3-yl)piperidine-4-yl)-1H-pyrazole-4-yl)amino)((1-methylcyclopropyl)amino)-7H-pyrrolo[2,3-d]pyrimidine-5-carbonitrile] | 65 | 11 | 88 | 0.85 | 5.7 | 93
3 | CCNc1nc(Nc2ccc(C(=O)N3CCC(N4CCOCC4)CC3)cc2OC)nc2[nH]cc(C(F)(F)F)c12 [Example 104, (4-((4-(ethylamino)-5-(trifluoromethyl)-7H-pyrrolo[2,3-d]pyrimidine-2-yl)amino)-3-methoxyphenyl)(4-morpholinopiperidine-1-yl)methanone] | 99 | 87 | 99 | 15 | 20 | 100
